From PubChem BioAssay AID328 (DTP/NCI, 2004)
“And” between values parts separate entries of the source, which are not always exact repeats. Equal values may be shown once. Toxic doses and inconclusive results are not listed.

Test system: BDF1 mice, P388 leukemia ip, median survival T/C
Experiment: NCI In Vivo Anticancer Drug Screen. Data for tumor model P388 Leukemia (intraperitoneal) in B6D2F1 (BDF1) mice
Conditions: endpoint: median survival time, higher = longer survival
Method in brief: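 Steps: implant the tumour, treat one group with compound and another with vehicle, record survival, then divide treated by control.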

[1] = dose: 6.25 mg/kg/injection, schedule: Q01DX009 (ip), vehicle: saline with Tween-80
[2] = dose: 12.5 mg/kg/injection, schedule: Q01DX009 (ip), vehicle: saline with Tween-80
[3] = dose: 25.0 mg/kg/injection, schedule: Q01DX009 (ip), vehicle: saline with Tween-80
[4] = dose: 25.0 mg/kg/injection, schedule: Q04DX003 (ip), vehicle: saline with Tween-80
[5] = dose: 50.0 mg/kg/injection, schedule: Q01DX009 (ip), vehicle: saline with Tween-80
[6] = dose: 50.0 mg/kg/injection, schedule: Q04DX003 (ip), vehicle: saline with Tween-80
[7] = dose: 12.5 mg/kg/injection, schedule: Q04DX003 (ip), vehicle: saline
[8] = dose: 100.0 mg/kg/injection, schedule: Q04DX003 (ip), vehicle: saline
[9] = dose: 200.0 mg/kg/injection, schedule: Q04DX003 (ip), vehicle: saline
[10] = dose: 200.0 mg/kg/injection, schedule: Q01DX009 (ip), vehicle: saline with Tween-80
[11] = dose: 100.0 mg/kg/injection, schedule: Q01DX001 (ip), vehicle: saline with Tween-80
[12] = dose: 200.0 mg/kg/injection, schedule: Q01DX001 (ip), vehicle: saline with Tween-80
[13] = dose: 400.0 mg/kg/injection, schedule: Q04DX003 (ip), vehicle: saline
[14] = dose: 50.0 mg/kg/injection, schedule: Q01DX009 (ip), vehicle: saline
[15] = dose: 100.0 mg/kg/injection, schedule: Q01DX009 (ip), vehicle: saline
[16] = dose: 200.0 mg/kg/injection, schedule: Q01DX009 (ip), vehicle: saline
[17] = dose: 100.0 mg/kg/injection, schedule: Q01DX009 (ip), vehicle: saline with Tween-80

## Cc1c(C(=O)O)nc(/C=C/C(Cl)(Cl)Cl)[nH]c1=O
dose: 25.0 mg/kg/injection, schedule: Q04DX003 (ip), vehicle: Klucel (hydroxypropylcellulose) (HPC)
  T/C: 102 % of control
dose: 50.0 mg/kg/injection, schedule: Q04DX003 (ip), vehicle: Klucel (hydroxypropylcellulose) (HPC)
  T/C: 100 % of control
dose: 100.0 mg/kg/injection, schedule: Q04DX003 (ip), vehicle: Klucel (hydroxypropylcellulose) (HPC)
  T/C: 115 % of control
dose: 200.0 mg/kg/injection, schedule: Q04DX003 (ip), vehicle: Klucel (hydroxypropylcellulose) (HPC)
  T/C: 103 % of control
dose: 400.0 mg/kg/injection, schedule: Q04DX003 (ip), vehicle: Klucel (hydroxypropylcellulose) (HPC)
  T/C: 116 % of control

## CSc1cc(-c2ccc(Cl)cc2)s[s+]1
dose: 3.12 mg/kg/injection, schedule: Q04DX003 (ip), vehicle: saline with Tween-80
  T/C: 104 % of control
[1]
  T/C: 110 % of control
dose: 6.25 mg/kg/injection, schedule: Q04DX003 (ip), vehicle: saline with Tween-80
  T/C: 111 % of control
[2]
  T/C: 89 % of control
dose: 12.5 mg/kg/injection, schedule: Q04DX003 (ip), vehicle: saline with Tween-80
  T/C: 109 % of control
[3]
  T/C: 100 % of control
[4]
  T/C: 108 % of control
[5]
  T/C: 91 % of control
[6]
  T/C: 94 % of control

## CC(C)(C)P(O)(=S)c1ccccc1 (configuration not stated) (tested in a mixture with another compound)
dose: 50.0 mg/kg/injection, schedule: Q01DX005 (ip), vehicle: saline
  T/C: 94 % of control
dose: 100.0 mg/kg/injection, schedule: Q01DX005 (ip), vehicle: saline
  T/C: 93 % of control
dose: 200.0 mg/kg/injection, schedule: Q01DX005 (ip), vehicle: saline
  T/C: 100 % of control

## C#CC(=O)C1OC2OC(C)(C)OC2C2OC(C)(C)OC12 (configuration not stated)
dose: 3.12 mg/kg/injection, schedule: Q01DX005 (ip), vehicle: saline with Tween-80
  T/C: 100 % of control
dose: 6.25 mg/kg/injection, schedule: Q01DX005 (ip), vehicle: saline with Tween-80
  T/C: 107 % of control
dose: 12.5 mg/kg/injection, schedule: Q01DX005 (ip), vehicle: saline with Tween-80
  T/C: 107 % of control

## FC(F)(F)c1ccc2c(c1)N(CCCN1CCN(CCOCCCl)CC1)c1ccccc1S2
[7]
  T/C: 107 % of control

## N#C/C1=C(\N)CCCOCCCOCCCOCCCOCCCOCC1
[8]
  T/C: 97 % of control
[9]
  T/C: 92 % of control

## S=C(N/N=C1\CSCc2ccccc21)Nc1cc(Cl)ccc1Cl
[5]
  T/C: 90 % of control
[10]
  T/C: 88 % of control

## CCCCCCCCCCCCCCCC(=O)N(C/C=C/CN(CCCN(C)C)C(=O)CCCCCCCCCCCCCCC)CCCN(C)C
dose: 1.56 mg/kg/injection, schedule: Q01DX009 (ip), vehicle: saline with Tween-80
  T/C: 95 % of control
dose: 3.13 mg/kg/injection, schedule: Q01DX009 (ip), vehicle: saline with Tween-80
  T/C: 100 % of control
[1]
  T/C: 113 % of control
[2]
  T/C: 95 % of control and 100 % of control

## [Cl][Ni+2][Cl].[NH-]CCN1CC1
dose: 6.25 mg/kg/injection, schedule: Q01DX001 (ip), vehicle: saline
  T/C: 90 % of control
dose: 12.5 mg/kg/injection, schedule: Q01DX001 (ip), vehicle: saline
  T/C: 100 % of control
dose: 25.0 mg/kg/injection, schedule: Q01DX001 (ip), vehicle: saline
  T/C: 100 % of control

## Cc1nnc2c(Cl)nccn12
[11]
  T/C: 106 % of control
[12]
  T/C: 106 % of control

## N#CCCCCNC(=O)C1CCC(=O)N1 (configuration not stated)
[8]
  T/C: 111 % of control
[13]
  T/C: 111 % of control

## O=C1NC(O)CCN1C1OC(CO)C(O)C1O (configuration not stated)
[14]
  T/C: 89 % of control
[15]
  T/C: 100 % of control and 113 % of control
[8]
  T/C: 116 % of control
[16]
  T/C: 101 % of control and 104 % of control
[9]
  T/C: 108 % of control
dose: 400.0 mg/kg/injection, schedule: Q01DX009 (ip), vehicle: saline
  T/C: 100 % of control and 117 % of control
[13]
  T/C: 95 % of control

## COc1ccc(C(=O)CC(C#N)c2ccc3c(c2)OCO3)cc1OC (configuration not stated)
[17]
  T/C: 90 % of control
[10]
  T/C: 100 % of control
dose: 400.0 mg/kg/injection, schedule: Q01DX009 (ip), vehicle: saline with Tween-80
  T/C: 95 % of control

## O=P(N1CCCC1)(N1CC1)N1CC1
dose: 0.74 mg/kg/injection, schedule: Q01DX009 (ip), vehicle: saline
  T/C: 89 % of control
dose: 1.11 mg/kg/injection, schedule: Q01DX009 (ip), vehicle: saline
  T/C: 98 % of control
dose: 1.67 mg/kg/injection, schedule: Q01DX009 (ip), vehicle: saline
  T/C: 121 % of control
dose: 2.2 mg/kg/injection, schedule: Q01DX009 (ip), vehicle: saline
  T/C: 205 % of control
dose: 2.2 mg/kg/injection, schedule: Q04DX003 (ip), vehicle: saline
  T/C: 113 % of control
dose: 2.5 mg/kg/injection, schedule: Q01DX009 (ip), vehicle: saline
  T/C: 180 % of control
dose: 3.3 mg/kg/injection, schedule: Q01DX009 (ip), vehicle: saline
  T/C: 255 % of control
dose: 5.0 mg/kg/injection, schedule: Q01DX009 (ip), vehicle: saline
  T/C: 268 % of control and 317 % of control
dose: 5.56 mg/kg/injection, schedule: Q04DX003 (ip), vehicle: saline
  T/C: 150 % of control
dose: 7.5 mg/kg/injection, schedule: Q01DX009 (ip), vehicle: saline
  T/C: 112 % of control
dose: 7.5 mg/kg/injection, schedule: Q04DX003 (ip), vehicle: saline
  T/C: 182 % of control
dose: 8.33 mg/kg/injection, schedule: Q04DX003 (ip), vehicle: saline
  T/C: 204 % of control
[7]
  T/C: 240 % of control and 250 % of control
dose: 18.7 mg/kg/injection, schedule: Q04DX003 (ip), vehicle: saline
  T/C: 272 % of control

## c1ccc2c(c1)Sc1ccccc1N2Cc1cnc[nH]1
[4]
  T/C: 100 % of control
[6]
  T/C: 104 % of control
dose: 100.0 mg/kg/injection, schedule: Q04DX003 (ip), vehicle: saline with Tween-80
  T/C: 100 % of control
dose: 200.0 mg/kg/injection, schedule: Q04DX003 (ip), vehicle: saline with Tween-80
  T/C: 109 % of control

## COc1ccc(C2CC(c3ccccc3O)=NC(c3ccc(OC)cc3)N2)cc1 (configuration not stated)
[3]
  T/C: 91 % of control
[5]
  T/C: 94 % of control
[17]
  T/C: 92 % of control

## O=C(O)c1ccc(N2C(=O)c3ccccc3C2=O)cc1[N+](=O)[O-]
[14]
  T/C: 106 % of control
[15]
  T/C: 107 % of control
[8]
  T/C: 99 % of control
[16]
  T/C: 111 % of control
[9]
  T/C: 105 % of control
[13]
  T/C: 99 % of control

## Cn1c(N)c(N=O)c(=O)n(C)c1=O
dose: 3.12 mg/kg/injection, schedule: Q01DX009 (ip), vehicle: saline
  T/C: 109 % of control
dose: 6.25 mg/kg/injection, schedule: Q01DX009 (ip), vehicle: saline
  T/C: 100 % of control
dose: 12.5 mg/kg/injection, schedule: Q01DX009 (ip), vehicle: saline
  T/C: 100 % of control
dose: 25.0 mg/kg/injection, schedule: Q01DX009 (ip), vehicle: Klucel (hydroxypropylcellulose) (HPC)
  T/C: 95 % of control
dose: 50.0 mg/kg/injection, schedule: Q01DX009 (ip), vehicle: Klucel (hydroxypropylcellulose) (HPC)
  T/C: 90 % of control
dose: 100.0 mg/kg/injection, schedule: Q04DX003 (ip), vehicle: alcohol
  T/C: 109 % of control
dose: 125.0 mg/kg/injection, schedule: Q01DX010 (ip), vehicle: other
  T/C: 109 % of control
dose: 200.0 mg/kg/injection, schedule: Q04DX003 (ip), vehicle: alcohol
  T/C: 100 % of control
dose: 250.0 mg/kg/injection, schedule: Q01DX010 (ip), vehicle: other
  T/C: 86 % of control
dose: 400.0 mg/kg/injection, schedule: Q04DX003 (ip), vehicle: alcohol
  T/C: 100 % of control

## [O-][n+]1onc2c(-c3ccccc3)nnc(-c3ccccc3)c21
dose: 100.0 mg/kg/injection, schedule: Q04DX003 (ip), vehicle: saline sonified
  T/C: 104 % of control
dose: 200.0 mg/kg/injection, schedule: Q04DX003 (ip), vehicle: saline sonified
  T/C: 90 % of control
dose: 400.0 mg/kg/injection, schedule: Q04DX003 (ip), vehicle: saline sonified
  T/C: 100 % of control

## CC(C)=CC=O
[11]
  T/C: 100 % of control
[12]
  T/C: 96 % of control
dose: 400.0 mg/kg/injection, schedule: Q01DX001 (ip), vehicle: saline with Tween-80
  T/C: 100 % of control

## C=Cn1ccnc1C(O)(c1ccccc1)c1ccc(C(C)(C)C)cc1 (configuration not stated)
[5]
  T/C: 93 % of control
[17]
  T/C: 90 % of control
[10]
  T/C: 93 % of control
